Columns and labels:
GP2d cells (KRAS G12D) = experiment: Cell-based pERK HTRF assay in GP2d cell (Biological Example 2); conditions: GP2d, GP2d (KRAS G12D) cells
Method in brief: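 Cells grown in DMEM with 10% FBS were exposed to compound for 60 min at 0.25% DMSO, using a 9-point half-log series starting at 1 μM or 100 nM. Lysates were then mixed with d2 and Eu cryptate antibodies for 4–24 h at room temperature, and pERK was read by HTRF.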

[1] = molecular target: T1, Avi-KRAS G12D (2-169) GTP/RAF1 RBD-3xFLAG (51-131) (Homo sapiens, UniProt P01116, G12D); experiment: Raf1-KRAS G12D-GTP disruption HTRF assay (Biological Example 3); format: binding; conditions: KRAS G12D, GTP-loaded
T1 construct: Avi-KRAS G12D (2-169)
T1 sequence (P01116 2-169 isoform P01116-2 G12D): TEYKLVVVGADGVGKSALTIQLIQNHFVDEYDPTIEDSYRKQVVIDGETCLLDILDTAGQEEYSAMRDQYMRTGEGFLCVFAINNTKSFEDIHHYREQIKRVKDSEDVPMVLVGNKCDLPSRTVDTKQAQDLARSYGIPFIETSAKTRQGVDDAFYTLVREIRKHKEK
Method in brief: (§1)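 An HTRF assay measured disruption of 50 nM Avi-KRAS (2-169)-GTP (WT, G12C, G12D or G12V) bound to RAF1 RBD-3xFLAG (51-131). Buffer was Tris pH 7.5 with 5 mM MgCl2 and 10% DMSO. Compounds (30–0.005 μM, 3-fold, 10 points) were incubated 1 h at room temperature, and activity is given as % of DMSO.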

[2] = molecular target: T2, Avi-KRAS G12C (2-169) GTP/RAF1 RBD-3xFLAG (51-131) (Homo sapiens, UniProt P01116, G12C); experiment: Raf1-KRAS G12C-GTP disruption HTRF assay (Biological Example 3); format: binding; conditions: KRAS G12C, GTP-loaded
T2 construct: Avi-KRAS G12C (2-169)
T2 sequence (P01116 2-169 isoform P01116-2 G12C): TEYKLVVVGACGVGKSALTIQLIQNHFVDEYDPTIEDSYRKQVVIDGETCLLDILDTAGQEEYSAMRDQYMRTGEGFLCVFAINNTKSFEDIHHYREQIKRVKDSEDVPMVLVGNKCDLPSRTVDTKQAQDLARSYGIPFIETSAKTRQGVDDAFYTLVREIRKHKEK
Method in brief: as §1

[3] = molecular target: T3, Avi-KRAS G12V (2-169) GTP/RAF1 RBD-3xFLAG (51-131) (Homo sapiens, UniProt P01116, G12V); experiment: Raf1-KRAS G12V-GTP disruption HTRF assay (Biological Example 3); format: binding; conditions: KRAS G12V, GTP-loaded
T3 construct: Avi-KRAS G12V (2-169)
T3 sequence (P01116 2-169 isoform P01116-2 G12V): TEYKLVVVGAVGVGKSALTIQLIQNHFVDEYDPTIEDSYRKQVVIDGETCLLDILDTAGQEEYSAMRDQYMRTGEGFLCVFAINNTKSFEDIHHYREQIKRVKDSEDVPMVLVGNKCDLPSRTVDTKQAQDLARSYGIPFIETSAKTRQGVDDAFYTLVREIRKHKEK
Method in brief: as §1

[4] = molecular target: T4, Avi-KRAS WT (2-169) GTP/RAF1 RBD-3xFLAG (51-131) (Homo sapiens, UniProt P01116); experiment: Raf1-KRAS WT-GTP disruption HTRF assay (Biological Example 3); format: binding; conditions: KRAS WT, GTP-loaded
T4 construct: Avi-KRAS WT (2-169)
T4 sequence (P01116 2-169 isoform P01116-2): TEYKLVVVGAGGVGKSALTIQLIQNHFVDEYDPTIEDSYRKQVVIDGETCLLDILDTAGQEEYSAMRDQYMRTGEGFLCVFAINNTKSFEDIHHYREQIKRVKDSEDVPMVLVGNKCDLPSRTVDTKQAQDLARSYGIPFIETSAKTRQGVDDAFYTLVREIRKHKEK
Method in brief: as §1

SW620 cells (KRAS G12V) = experiment: Cell-based pERK HTRF assay in SW620 cell (Biological Example 4); conditions: Homo sapiens, SW-620, SW620 (KRAS G12V) cells
Method in brief: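 SW620 (KRAS G12V) cells seeded at 3×10^4/well in RPMI, 10% FBS, then treated next day for 4 h with a 9-point half-log series from 1 μM top (0.25% DMSO). Lysates analyzed for pERK by HTRF (Eu cryptate/d2 antibodies, 4–24 h at room temperature), excitation 320 nm, emission 615 nm.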

What does the source list for CCN(c1nc(OC[C@@]23CCCN2C[C@H](F)C3)nc2c(F)c(-c3ccc(F)c4sc(N)c(C#N)c34)c(C(F)(F)F)cc12)[C@H]1C[C@H](COC)N(C(=O)C2C[C@@H]2F)C1 (stereo partly drawn) [Compound 870]?
IC50 (GP2d cells (KRAS G12D)): < 100 nM; IC50 [1]: 100 to 1000 nM; IC50 [2]: 100 to 1000 nM; IC50 [3]: 100 to 1000 nM; IC50 [4]: 100 to 1000 nM; IC50 (SW620 cells (KRAS G12V)): < 100 nM

CCN(c1nc(OC[C@@]23CCCN2C[C@H](F)C3)nc2c(F)c(-c3ccc(F)c4sc(N)c(C#N)c34)c(C(F)(F)F)cc12)[C@H]1CCN(C(=O)c2ncoc2C)C1 (atropisomer, axis not shown) [Compound 901] was tested. Which IC50 (GP2d cells (KRAS G12D)) did it give?
The IC50 was less than 100 nM.

And the IC50 [1]?
Its IC50 is 100 to 1000 nM.

And the IC50 [2]?
Its IC50 is 100 to 1000 nM.

And the IC50 [3]?
The IC50 was 100 to 1000 nM.

What about the IC50 [4] of the same compound?
The IC50 was 100 to 1000 nM.

And the IC50 (SW620 cells (KRAS G12V))?
Its IC50 is less than 100 nM.

What does the source list for CCN(c1nc(OC[C@@]23CCCN2C[C@H](F)C3)nc2c(F)c(-c3ccc(F)c4sc(N)c(C#N)c34)c(C(F)(F)F)cc12)[C@H]1CCN(C(=O)[C@H]2C[C@@H](F)C2)C1 (atropisomer, axis not shown) [Compound 842]?
IC50 (GP2d cells (KRAS G12D)): < 100 nM; IC50 [1]: 100 to 1000 nM; IC50 [2]: 100 to 1000 nM; IC50 [3]: 100 to 1000 nM; IC50 [4]: 100 to 1000 nM; IC50 (SW620 cells (KRAS G12V)): < 100 nM

For CN(Cc1cnccn1)c1nc(OC[C@@]23CCCN2C[C@H](F)C3)nc2c(F)c(-c3ccc(F)c4sc(N)c(C#N)c34)c(C(F)(F)F)cc12 (atropisomer, axis not shown) [Compound 872], which IC50 (GP2d cells (KRAS G12D)) is on record?
Its IC50 is less than 100 nM.

What about the IC50 [1] of the same compound?
Its IC50 is 100 to 1000 nM.

What about the IC50 [2] of the same compound?
The IC50 was 100 to 1000 nM.

And the IC50 [3]?
Its IC50 is 100 to 1000 nM.

And the IC50 [4]?
The IC50 was 1000 to 10000 nM.

What about the IC50 (SW620 cells (KRAS G12V)) of the same compound?
Its IC50 is less than 100 nM.

CN(Cc1cccc(=O)n1C)c1nc(OC[C@@]23CCCN2C[C@H](F)C3)nc2c(F)c(-c3ccc(F)c4sc(N)c(C#N)c34)c(C(F)(F)F)cc12 (atropisomer, axis not shown) [Compound 879] was tested. Which IC50 (GP2d cells (KRAS G12D)) did it give?
Its IC50 is less than 100 nM.

And the IC50 [1]?
The IC50 was 1000 to 10000 nM.

What about the IC50 [2] of the same compound?
The IC50 was greater than 10000 nM.

What about the IC50 [3] of the same compound?
Its IC50 is greater than 10000 nM.

What about the IC50 [4] of the same compound?
The IC50 was greater than 10000 nM.

What about the IC50 (SW620 cells (KRAS G12V)) of the same compound?
The IC50 was less than 100 nM.

For CCN(c1nc(OC[C@@]23CCCN2C[C@H](F)C3)nc2c(F)c(-c3ccc(F)c4sc(N)c(C#N)c34)c(C(F)(F)F)cc12)[C@H]1CCN(C(=O)c2cncs2)C1 (atropisomer, axis not shown; (aS)) [Compound 906, 2-amino-4-((S)-4-(ethyl((S)-1-(thiazole-5-carbonyl)pyrrolidin-3-yl)amino)-8-fluoro-2-(((2R,7aS)-2-fluorotetrahydro-1H-pyrrolizin-7a(5H)-yl)methoxy)-6-(trifluoromethyl)quinazolin-7-yl)-7-fluorobenzo[b]thiophene-3-carbonitrile], which IC50 (GP2d cells (KRAS G12D)) is on record?
The IC50 was less than 100 nM.

And the IC50 [1]?
Its IC50 is 100 to 1000 nM.

And the IC50 [2]?
Its IC50 is 100 to 1000 nM.

What about the IC50 [3] of the same compound?
The IC50 was 100 to 1000 nM.

And the IC50 [4]?
Its IC50 is 100 to 1000 nM.

And the IC50 (SW620 cells (KRAS G12V))?
The IC50 was less than 100 nM.

How did the IC50 (GP2d cells (KRAS G12D)) turn out when CCN(c1nc(OC[C@@]23CCCN2C[C@H](F)C3)nc2c(F)c(-c3ccc(F)c4sc(N)c(C#N)c34)c(C(F)(F)F)cc12)[C@H]1CCN(C(=O)N2CC(F)C2)[C@H]1C (atropisomer, axis not shown) [Compound 818] was run?
The IC50 was less than 100 nM.

And the IC50 [1]?
Its IC50 is 1000 to 10000 nM.

And the IC50 [2]?
Its IC50 is 1000 to 10000 nM.

What about the IC50 [3] of the same compound?
Its IC50 is 1000 to 10000 nM.

And the IC50 [4]?
The IC50 was 1000 to 10000 nM.

And the IC50 (SW620 cells (KRAS G12V))?
The IC50 was less than 100 nM.

What does the source list for CCN(c1nc(OC[C@@]23CCCN2C[C@H](F)C3)nc2c(F)c(-c3ccc(F)c4sc(N)c(C#N)c34)c(C(F)(F)F)cc12)[C@H]1C[C@H]2CN(C(C)(C)C)C(=O)N2C1 (atropisomer, axis not shown) [Compound 936]?
IC50 (GP2d cells (KRAS G12D)): < 100 nM; IC50 [1]: 100 to 1000 nM; IC50 [2]: 1000 to 10000 nM; IC50 [3]: 1000 to 10000 nM; IC50 [4]: 1000 to 10000 nM; IC50 (SW620 cells (KRAS G12V)): < 100 nM

Which IC50 (GP2d cells (KRAS G12D)) does the source give for CN(Cc1ncoc1C#N)c1nc(OC[C@@]23CCCN2C[C@H](F)C3)nc2c(F)c(-c3ccc(F)c4sc(N)c(C#N)c34)c(C(F)(F)F)cc12 (atropisomer, axis not shown) [Compound 953] here?
The IC50 was less than 100 nM.

What about the IC50 [1] of the same compound?
The IC50 was 100 to 1000 nM.

What about the IC50 [2] of the same compound?
Its IC50 is 1000 to 10000 nM.

And the IC50 [3]?
The IC50 was 1000 to 10000 nM.

What about the IC50 [4] of the same compound?
The IC50 was 1000 to 10000 nM.

And the IC50 (SW620 cells (KRAS G12V))?
The IC50 was 100 to 1000 nM.

For CCN(c1nc(OC[C@@]23CCCN2C[C@H](F)C3)nc2c(F)c(-c3ccc(F)c4sc(N)c(C#N)c34)c(C(F)(F)F)cc12)[C@H]1C[C@H](COC)N(C(=O)[C@@H]2CC2(F)F)C1 (atropisomer, axis not shown) [Compound 854], which IC50 (GP2d cells (KRAS G12D)) is on record?
Its IC50 is less than 100 nM.

And the IC50 [1]?
Its IC50 is 100 to 1000 nM.

And the IC50 [2]?
The IC50 was 100 to 1000 nM.

What about the IC50 [3] of the same compound?
The IC50 was 100 to 1000 nM.

What about the IC50 [4] of the same compound?
The IC50 was 100 to 1000 nM.

What about the IC50 (SW620 cells (KRAS G12V)) of the same compound?
The IC50 was less than 100 nM.
